Broadly, the melting point is the temperature, or range, at which the solid turns liquid.

Counter-ions that a name gives are not always drawn.

Take `CCNC(=O)N1CCN(c2cc(-c3ccccc3)nc3ccsc23)CC1.Cl`: the melting point was > 240 °C (dec.). The value for `CCNC(=O)N1CCN(c2cc(-c3cccc(OC)c3)nc3ccsc23)CC1.Cl` was > 198 °C. The value for `Cl.O=C(NCCCCl)N1CCN(c2cc(-c3ccc(F)cc3)nc3ccsc23)CC1` was 235 to 238 °C (dec.); that for `CCNC(=O)N1CCN(c2cc(-c3ccc(F)cc3)nc3ccsc23)CC1.Cl` was > 147 °C (dec.); that for `CNC(=O)N1CCN(c2cc(-c3ccccc3)nc3ccsc23)CC1.Cl` was 185 to 190 °C.

Regarding `CCNC(=O)C1CCN(c2cc(-c3ccccc3)nc3cccnc23)CC1.Cl`, the melting point is > 210 °C (dec.).

`CNC(=O)C1CCN(c2cc(-c3ccccc3)nc3ccsc23)CC1.Cl`: the melting point was > 260 °C (dec.). The value for `CCCNC(=O)C1CCN(c2cc(-c3ccccc3)nc3ccsc23)CC1.Cl` was 159 to 160 °C (dec.).

As to `CC(C)(C)NC(=O)C1CCN(c2cc(-c3ccccc3)nc3ccsc23)CC1.Cl`, the melting point was 270 to 272 °C (dec.). Regarding `CCCCNC(=O)C1CCN(c2cc(-c3ccccc3)nc3ccsc23)CC1.Cl`, the melting point was 170 to 172 °C (dec.).

Regarding `Cl.O=C(NC1CC1)C1CCN(c2cc(-c3ccccc3)nc3ccsc23)CC1`, the melting point is 199 to 201 °C (dec.). `Cl.NC(=O)C1CCN(c2cc(-c3ccccc3)nc3ccsc23)CC1`: the melting point is 303 to 305 °C (dec.). The value for `Cl.NCCNC(=O)C1CCN(c2cc(-c3ccccc3)nc3ccsc23)CC1` was 176 to 178 °C (dec.). For `CCNCCNC(=O)C1CCN(c2cc(-c3ccccc3)nc3ccsc23)CC1.Cl`, the melting point was > 95 °C (dec.). For the compound `CN(C)CCNC(=O)C1CCN(c2cc(-c3ccccc3)nc3ccsc23)CC1.Cl`, the melting point was > 150 °C (dec.). In the case of `COCCCNC(=O)C1CCN(c2cc(-c3ccccc3)nc3ccsc23)CC1.Cl` it was 147 to 149 °C (dec.); in that of `Cl.O=C(NCc1ccccc1)C1CCN(c2cc(-c3ccccc3)nc3ccsc23)CC1`, 163 to 165 °C (dec.).

With `Cl.O=C(NCc1cccc(F)c1)C1CCN(c2cc(-c3ccccc3)nc3ccsc23)CC1`, the melting point was 236 to 238 °C (dec.). The compound `NC(=O)C1CCN(c2cc(-c3ccccc3F)nc3ccsc23)CC1` had a melting point of 194 to 195 °C. `Cl.O=C(NCc1ccc(F)cc1)C1CCN(c2cc(-c3ccccc3)nc3ccsc23)CC1`: the melting point is 190 to 192 °C (dec.).

For the compound `Cc1ccc(CNC(=O)C2CCN(c3cc(-c4ccccc4)nc4ccsc34)CC2)cc1.Cl`, the melting point is 177 to 178 °C (dec.). For `Cl.O=C(NCc1cccs1)C1CCN(c2cc(-c3ccccc3)nc3ccsc23)CC1`, the melting point is > 230 °C (dec.). In the case of `COc1cccc(-c2cc(N3CCC(C(N)=O)CC3)c3sccc3n2)c1.Cl` it was 133 to 135 °C (dec.); in that of `CCNC(=O)C1CCN(c2cc(-c3cccc(OC)c3)nc3ccsc23)CC1.Cl`, > 230 °C (dec.). Take `CCOc1ccc(-c2cc(N3CCC(C(N)=O)CC3)c3sccc3n2)cc1.Cl`: the melting point was 211 to 213 °C (dec.). For `CCOc1ccc(-c2cc(N3CCC(C(=O)NCc4ccccn4)CC3)c3sccc3n2)cc1.Cl`, the melting point was 178 to 180 °C (dec.).

For `CCNC(=O)C1CCN(c2cc(-c3ccc(F)cc3)nc3ccsc23)CC1.Cl`, the melting point was 220 to 222 °C (dec.).

Consider `CCCNC(=O)C1CCN(c2cc(-c3ccc(F)cc3)nc3ccsc23)CC1.Cl`, for which the melting point is 207 to 209 °C (dec.). In the case of `Cl.NCCNC(=O)C1CCN(c2cc(-c3ccc(F)cc3)nc3ccsc23)CC1`, the melting point was 115 to 118 °C (dec.).

On to `CN(C)CCNC(=O)C1CCN(c2cc(-c3ccc(F)cc3)nc3ccsc23)CC1.Cl`, for which the melting point was 180 to 182 °C (dec.). Regarding `Cl.O=C(NCCO)C1CCN(c2cc(-c3ccc(F)cc3)nc3ccsc23)CC1`, the melting point was 198 to 200 °C (dec.). In the case of `Cl.O=C(NCCO)C1CCN(c2cc(-c3ccccc3)nc3ccsc23)CC1` it was > 220 °C (dec.). In the case of `CCNC(=O)C1CCN(c2cc(-c3ccncc3)nc3ccsc23)CC1.Cl` it was > 227 °C (dec.).

`COC(=O)C1CCN(c2cc(-c3ccccc3)nc3sccc23)CC1.Cl`: the melting point is > 220 °C (dec.). For the compound `NC(=O)C1CCN(c2cc(-c3ccc(F)cc3)nc3ccsc23)CC1`, the melting point is 251 to 253 °C. In the case of `COc1cccc(-c2cc(N3CCN(C(=O)c4ccncc4)CC3)c3sccc3n2)c1` (as salt: hydrochloride) it was 215 to 217 °C; in that of `O=C(NC1CCCC1)C1CCN(c2cc(-c3ccccc3)nc3ccsc23)CC1` (as salt: hydrochloride), 179 to 181 °C (dec.); in that of `COCCNC(=O)C1CCN(c2cc(-c3ccccc3)nc3ccsc23)CC1` (as salt: hydrochloride), 157 to 160 °C (dec.). With `O=C(NCC1CCCO1)C1CCN(c2cc(-c3ccccc3)nc3ccsc23)CC1` (centres unmarked) (as salt: hydrochloride), the melting point is > 210 °C (dec.). Regarding `O=C(NCc1ccncc1)C1CCN(c2cc(-c3ccccc3)nc3ccsc23)CC1` (as salt: hydrochloride), the melting point is 176 to 178 °C (dec.). The value for `NC(=O)C1CCN(c2cc(-c3ccc(F)cc3)nc3ccsc23)CC1` (as salt: hydrochloride) was > 303 °C (dec.); that for `COC(C)CNC(=O)C1CCN(c2cc(-c3ccc(F)cc3)nc3ccsc23)CC1` (centres unmarked) (as salt: hydrochloride) was 179 to 180 °C (dec.). As for `COc1cccc(-c2cc(N3CCN(C(=O)c4ccc(F)cc4)CC3)c3sccc3n2)c1` (as salt: hydrochloride), the melting point was > 174 °C (dec.).

Compound `c1ccc(-c2cc(N3CCOCC3)c3sccc3n2)cc1` (as salt: hydrochloride) gave a melting point of 195 to 198 °C.

The values are drawn from patent US6423711B1 (dated 2002).
